Laboratory results taken from patent publication US20130084319A1, “BROAD-SPECTRUM ANTIMICROBIAL COMPOSITIONS BASED ON COMBINATIONS OF TAUROLIDINE AND PROTAMINE AND MEDICAL DEVICES CONTAINING SUCH COMPOSITIONS” (priority 2011, published 2013).

Key:
[1] = tested on: Staphylococcus aureus ACTT 6538; assay: in vitro bacteria attachment assay on coated surgical mesh discs in SST medium; format: cell-based; details: serum containing media
Procedure: (§1) Taurolidine was dissolved at 4% wt./vol. in a 70% acetone 30% water vol./vol. mixture. Protamine sulfate was dissolved at 10% wt./vol. in water under warming. 50 μl of the taurolidine (TU) solution and 20 μl of the protamine (PS) solution were applied to each mesh disk using a pipette and allowed to dry at 50° C. until the majority of the liquid was gone and then stored under vacuum. First the taurolidine solution was applied, and then immediately thereafter the protamine sulfate solution was applied. The in vitro bacteria attachment assay was developed for its utility of indicating biofilm prevention potential of prototype mesh. Since bacterial attachment to a surface is the first step of biofilm formation, a surface treatment that inhibits bacterial attachment would reduce the chance of subsequent biofilm formation. The assay was conducted in SST (Serum Saline TSB) medium to mimic in vivo and clinical conditions. The formulation of SST is Tryptic Soy Broth (TSB):serum:saline in the ratio of 1:2:7. Each test article was incubated in SST inoculated with Staphylococcus aureus ACTT 6538 or Escherichia coli ATCC 25922 at about 6 Log CFU/ml. […] Viable bacteria populations were measured by plate count on TSA (Tryptic Soy agar) medium contain neutralizing agents. […]

[2] = tested on: Escherichia coli ATCC 25922; assay: as above; format: cell-based; details: serum containing media
Procedure: as §1

[3] = cited from earlier work

For `O=S1(=O)CCN(CN2CCS(=O)(=O)NC2)CN1` [TU, bis(1,1-dioxoperhydro-1,2,4-thiadiazinyl-4)-methane], the “inhibition of attachment by S. aureus to treated mesh surface” value [1] is given as “less inhibition than the combination”, the “inhibition of attachment by E. coli to treated mesh surface” value [2] is given as “less inhibition than the combination” and the “cumulative dose shown to be safe and well tolerated” value ([3]; cumulative doses) is given as “exceeding 300 g”. The “systemic dose shown to be safe and well tolerated” value ([3]; systemic doses) was “exceeding 40 g/day”.
